Assay results as given in patent US12042503B2, “Compositions and methods for treating coronavirus infections” (priority 2020, dated 2024).
Where two headings read alike, the source gives them in different places.

Assays:
[1] = molecular target: T1, EP4 receptor (PTGER4) (Homo sapiens, UniProt P35408); assay: PathHunter β-Arrestin PTGER4 (EP4) agonist assay, optimisation of cell density and temperature; format: cell-based; details: for EC50: read-out: RC50 (μM) / EC50, agonist
T1 construct: expressed in transfected cells; host or cells: PathHunter β-Arrestin PTGER4 (EP4) cell line
T1 sequence (P35408 whole entry): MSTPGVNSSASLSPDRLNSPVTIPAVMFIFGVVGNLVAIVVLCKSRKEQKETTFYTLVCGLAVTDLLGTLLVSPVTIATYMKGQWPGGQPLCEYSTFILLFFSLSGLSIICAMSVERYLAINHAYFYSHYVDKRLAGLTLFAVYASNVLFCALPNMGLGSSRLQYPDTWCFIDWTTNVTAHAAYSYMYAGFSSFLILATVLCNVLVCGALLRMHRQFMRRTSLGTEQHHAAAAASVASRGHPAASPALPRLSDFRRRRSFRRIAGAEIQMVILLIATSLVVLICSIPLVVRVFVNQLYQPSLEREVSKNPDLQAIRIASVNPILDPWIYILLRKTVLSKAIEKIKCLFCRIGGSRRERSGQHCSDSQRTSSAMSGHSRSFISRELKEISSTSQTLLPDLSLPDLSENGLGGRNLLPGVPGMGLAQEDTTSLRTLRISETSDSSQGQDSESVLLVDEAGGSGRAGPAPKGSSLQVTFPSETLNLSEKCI
Description: This Example describes antagonist assay experiments performed with known EP4 receptor inhibitors. Agonist controls and antagonist binding studies were performed in the PathHunter® β-Arrestin PTGER4 (EP4) cell lines. The PathHunter® β-Arrestin assay monitors activation by bound ligands of a GPCR in a homogenous, non-imaging assay format using Enzyme Fragment Complementation (EFC) with β-galactosidase (β-Gal) as the functional reporter. A fresh 10 mM working stock of GP1681 was created in the vehicle (1×PBS, pH 7.4). Prior to setting up the GP1681-antagonist assays, the parameters of the GP1681 agonist assay were optimized for most efficient cellular activation and expression of the reporter molecule via GP1681 receptor (PTGER4) binding. Two different cell densities (5K vs 7.5K) and incubation temperatures (room temperature and 37 C) were evaluated in standard agonist format. […] Vehicle only controls (1×PBS, pH 7.4) were also included for each receptor cell line. Receptor binding activity was analyzed using CBIS data analysis suite (ChemInnovation Software, Inc., San Diego, CA, USA).
The percentage of activity was calculated using the following formula: % Activity=100%×(mean RLU of test sample−mean RLU of vehicle control)/(mean MAX control ligand−mean RLU of vehicle control). Dose curves were performed and EC50 values determined. In all rows, the assay was Arrestin, the assay target was PTGER4, and the result type was EC50 for all agonists, and IC50 for all antagonists. NI indicates no inhibition, N is number of replicates, K is cell density, and RT is room temperature.

[2] = molecular target: T2, TP receptor (TBAX2R) (Homo sapiens, UniProt P21731); assay: PathHunter beta-arrestin cell-based prostanoid receptor assay, TP
T2 construct: host or cells: PathHunter beta-arrestin cell line
T2 sequence (P21731 1-343): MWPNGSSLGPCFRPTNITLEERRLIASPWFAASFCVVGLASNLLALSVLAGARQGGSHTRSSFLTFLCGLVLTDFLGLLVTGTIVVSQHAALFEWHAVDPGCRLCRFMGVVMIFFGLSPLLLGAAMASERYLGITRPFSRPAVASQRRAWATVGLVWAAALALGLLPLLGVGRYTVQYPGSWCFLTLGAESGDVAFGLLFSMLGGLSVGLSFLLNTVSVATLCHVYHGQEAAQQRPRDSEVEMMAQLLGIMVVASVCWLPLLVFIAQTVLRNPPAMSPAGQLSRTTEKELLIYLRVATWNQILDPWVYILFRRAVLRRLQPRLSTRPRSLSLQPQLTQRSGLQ
Description: (§1) DiscoverX cell-based ligand binding assays were performed in the PathHunter beta-arrestin (EP1, EP2, EP3, EP4, FP, IP, and TP receptors) or cAMP Hunter™ (DP receptor) cell lines.
(§2) Receptor binding studies were performed in either the PathHunter® b-Arrestin (EP1, EP2, EP3, EP4, FP, IP, and TP receptors) or cAMP Hunter™ (DP receptor) cell lines. A 10 mM working stock of GP1681 was created in 1×PBS, pH 7.4. All assays were carried out in duplicate with 10 individual concentrations of GP1681. A three-fold dilution series of GP1681 was established for the initial or pilot experiment with a starting concentration of 4 uM (starting concentration was chosen based on previous Gemmus Pharma preclinical experimental results).
(§3) GP1681 was incubated with cells lines at either 37° C. or room temperature, for 90-180 minutes (temperatures and incubation times are all dependent on established optimized procedures for each receptor cell line) after which cell wells were processed and signal production detected. […] Vehicle only controls (PBS, pH 7.4) were also included for each receptor cell line. Receptor binding activity was analyzed using CBIS data analysis suite (ChemInnovation, CA). The percentage of activity was calculated using the following formula: % Activity=100%×(mean RLU of test sample−mean RLU of vehicle control)/(mean MAX control ligand−mean RLU of vehicle control). Dose curves were performed and EC50 values determined.

[3] = molecular target: T3, IP receptor (PTGIR) (Homo sapiens, UniProt P43119); assay: PathHunter beta-arrestin cell-based prostanoid receptor assay, IP; details: Run 1, GP1681 starting concentration 4 uM; β-Arrestin; read-out: EC50
T3 construct: host or cells: PathHunter beta-arrestin cell line
T3 sequence (P43119 whole entry): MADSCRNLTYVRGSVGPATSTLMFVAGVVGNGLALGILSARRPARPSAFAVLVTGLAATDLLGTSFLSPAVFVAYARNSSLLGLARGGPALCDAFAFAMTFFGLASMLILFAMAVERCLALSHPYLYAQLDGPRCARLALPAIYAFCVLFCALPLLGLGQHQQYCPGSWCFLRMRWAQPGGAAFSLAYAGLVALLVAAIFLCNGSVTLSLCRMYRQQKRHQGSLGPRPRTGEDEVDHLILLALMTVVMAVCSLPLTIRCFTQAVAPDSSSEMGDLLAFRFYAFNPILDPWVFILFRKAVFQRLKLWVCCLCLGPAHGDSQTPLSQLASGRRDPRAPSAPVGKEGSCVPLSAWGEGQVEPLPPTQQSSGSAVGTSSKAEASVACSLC
Description: as §1, §2, §3

[4] = Stability of GP1681 dosing formulations at room temperature by UHPLC; format: physicochemical; details: 10% (w/v) PEG 400 in calcium and magnesium free PBS, pH 7.4; 0.0319 and 0.0596 mg/mL
Description: GP1681 in 10% (w/v) polyethylene glycol (PEG) 400 in calcium and magnesium free phosphate buffered saline (PBS), pH 7.4 was used for evaluation by ultra-high performance liquid chromatography (UHPLC; Agilent 1290 UHPLC instrument).
Dosing formulations of GP1681 (0, 0.01, 0.03, and 0.05 mg/mL) in 10% (w/v) PEG 400 in calcium and magnesium free PBS, pH 7.4 were collected and analyzed by UHPLC to assess accuracy of the preparation. Aliquots from the top, middle and bottom of the formulations were collected and analyzed to assess homogeneity of the formulations. The dosing formulations were diluted to bring the test article concentration to a suitable level within the calibration range. The samples were initially analyzed on the day of preparation. However, due to unacceptable results observed, the backup samples (stored at −10 to −30° C.) were analyzed five days later.
The concentration of GP1681 was calculated by reference to the solvent standard solutions prepared and analyzed concurrently with the dosing formulations. […]
Stability of the dosing formulations was determined by storing the middle aliquots of the high and low primary dose formulation samples in the Definitive Assay at room temperature for 3.7 hours and reanalyzing as described above. The results met the acceptance criterion of 90-110% of the concentration determined at T=0.

SMILES: CC#CCC(C)C(O)C=CC1C(O)CC2Oc3c(CCCC(=O)O)cccc3C21 (single isomer, unassigned) [GP1681, esuberaprost]
- EC50 ([1]; 5K 37C, N not given): 11.9 µM
- EC50 ([1]; N = 1, 5K 37C): 23.4 µM
- EC50 ([1]; N = 1, 5K RT): 12.7 µM
- EC50 ([1]; N = 1, 7.5K 37C): 22 µM
- EC50 ([1]; N = 1, 7.5K RT): 14.8 µM
- EC50 ([1]; N = 2, 5K 37C): 16.2 µM
- EC50 ([1]; N = 2, 5K RT): 16.1 µM
- EC50 ([1]; N = 2, 7.5K 37C): 18 µM
- EC50 ([1]; N = 2, 7.5K RT): 11.1 µM
- EC80 concentration ([1]; from GP1681 binding curves, used in the antagonist assays): 45 µM
- binding to TP receptor, in words [2]: does not bind
- EC50 ([2]; Run 1, GP1681 starting concentration 4 uM, β-Arrestin): > 4 µM
- EC50 [3]: 0.11 µM
- stable at room temperature [4]: at least 3.7 hours
